Assay results as given in patent US7335725B2, “Lipopeptides as antibacterial agents” (priority 1999, dated 2008).

How the values were obtained:
E. faecalis = assay: MIC by NCCLS broth microdilution, E. faecalis; assay type: cell-based; conditions: Mueller-Hinton Broth with 50 mg/L Ca2+, 37° C.
Protocol: (§1) Compounds were dissolved in 100% dimethyl sulfoxide and were diluted to the final reaction concentration (0.1 μg/mL-100 μg/mL) in microbial growth media. In all cases the final concentration of dimethyl sulfoxide incubated with cells is less than or equal to 1%. […] The optical densities (OD) of the bacterial cells, which measures bacterial cell growth and proliferation, were measured using a commercial plate reader. The MIC value is defined as the lowest compound concentration inhibiting growth of the test organism.

S. aureus = assay: MIC by NCCLS broth microdilution, S. aureus; assay type: cell-based; conditions: Mueller-Hinton Broth with 50 mg/L Ca2+, 37° C.
Protocol: as §1

For “Boc-protected daptomycin α,β-tridecenoyl amide [Compound 110]”, the “MIC (μg/ml) E. faecalis” value (E. faecalis) was “++ (an MIC (μg/ml) or an ED50 (mg/kg) of more than 1 μg/ml or 1 mg/kg, respectively, but less than or equal to 10 μg/ml or 10 mg/kg, respectively)” and the “MIC (μg/ml) S. aureus” value (S. aureus) was “+++ (the compound has an MIC (μg/ml) of 1 μg/ml or less)”.
